Assay results as given in patent US8569331B2 (ArQule, Inc., priority 2010, dated 2013).
pIC50: −log10 of the molar value. Structures can show the parent of a compound that is named as a salt.

molecular target: T1, AKT1 (Homo sapiens, UniProt P31749); test: AKT1 Alpha Screen Assay; format: biochemical; settings: full-length non-phosphorylated AKT1 8 nM, activated by PDK1 and MAPKAPK2, lipid vesicles, 50 μM ATP; biotinylated crosstide substrate; AlphaScreen
T1 construct: Full-length non-phosphorylated AKT1 is diluted in assay buffer
Protocol: AKT1 activity is assayed using the GSK3-derived biotinylated peptide substrate, crosstide (biotin-[…]), and AlphaScreen™ (Amplified Luminescent Proximity Homogeneous Assay) technology. AKT1 activation is achieved by the addition of the activating kinases PDK1 and MAPKAPK2, lipid vesicles, and ATP. The extent of peptide phosphorylation is determined using a phospho-AKT substrate antibody and acceptor beads conjugated to Protein A and donor beads conjugated to streptavidin that will bind to the biotin on the peptide. Excitation of the donor beads converts ambient oxygen to excited singlet oxygen which, when in close proximity to acceptor beads, reacts with acceptor beads resulting in signal amplification.
Test inhibitors and controls are prepared in 10% DMSO at 10-fold the desired final concentration, and added to each well of a reaction plate (Corning 96-well half-area solid white nonbinding surface plate) in a volume of 2.5 μL. Full-length non-phosphorylated AKT1 is diluted in assay buffer (50 mM Tris, pH 8.0, 0.02 mg/mL BSA, 10 mM MgCl2, 1 mM EGTA, 10% glycerol, 0.2 mM Na3VO4, 1 mM DTT, 0.1 mM β-glycerophosphate, and 0.2 mM NaF) and added to each well in a volume of 17.5 μL for a final concentration in the 25 μL reaction of 8 nM (Akt1). […] Assay plates are incubated for 90 minutes at room temperature in the dark, and the plates are read on a Perkin Elmer Envision Multilabel plate reader (excitation wavelength: […], emission wavelength: 570 nm).
Reaction conditions: 2.5 μL 10× Akt inhibitor in 10% DMSO; 17.5 μL non-phosphorylated Akt or buffer for blank; 20 minute pre-incubation at room temperature; 5 μL Reaction Mix (5×ATP, 5×substrate, 5×PDK1, 5×MK2, and 5× lipid vesicle mixture); 30 minute incubation at room temperature; 10 μL Detection Buffer; 90 minute incubation at room temperature and Detection (excitation: 640 nm, emission: 570 nm).

T1 sequence (P31749 whole entry): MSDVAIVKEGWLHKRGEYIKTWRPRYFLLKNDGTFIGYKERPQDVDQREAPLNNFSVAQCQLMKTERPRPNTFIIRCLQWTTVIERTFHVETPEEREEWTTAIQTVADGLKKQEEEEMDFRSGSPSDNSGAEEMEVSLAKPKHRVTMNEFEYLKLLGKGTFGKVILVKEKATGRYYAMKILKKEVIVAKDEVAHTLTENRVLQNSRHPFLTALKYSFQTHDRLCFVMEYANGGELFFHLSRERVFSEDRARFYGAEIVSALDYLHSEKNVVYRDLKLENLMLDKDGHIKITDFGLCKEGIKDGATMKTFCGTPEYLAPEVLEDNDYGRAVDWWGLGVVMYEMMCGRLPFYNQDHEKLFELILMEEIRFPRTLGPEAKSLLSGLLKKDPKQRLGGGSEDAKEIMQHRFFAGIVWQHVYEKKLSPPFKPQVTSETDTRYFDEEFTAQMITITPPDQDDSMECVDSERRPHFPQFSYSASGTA

pIC50 | Compound
7.28 | NC1(c2ccc(-c3c(-c4ccc(F)cc4)nc4n3-c3cccnc3Nc3ccccc3-4)cc2)CCC1 [Example 134]
7.08 | NC1(c2ccc(-c3c(-c4ccccc4F)nc4n3-c3cccnc3Nc3ccccc3-4)cc2)CCC1 [Example 136]
< 6.00 | NC1(c2ccc(-c3c(CC(=O)Nc4ccccc4)nc4n3-c3cccnc3Nc3ccccc3-4)cc2)CCC1 [Example 145]
6.53 | NC1(c2ccc(-c3c(-c4cccc(F)c4)nc4n3-c3cccnc3Nc3ccccc3-4)cc2F)CCC1 [Example 140]
6.91 | NCc1ccc(-c2c(-c3ccccc3)nc3n2-c2cccnc2Nc2ccccc2-3)cc1 [Example 143]
7.85 | NC1(c2ccc(-c3c(-c4cnccn4)nc4n3-c3cccnc3Nc3ccccc3-4)cc2)CCC1 [Example 15]
7.28 | NC1(c2ccc(-c3c(-c4ccc(-c5ccccc5)cc4)nc4n3-c3cccnc3Nc3ccccc3-4)cc2)CCC1 [Example 138]
8.40 | NC1(c2ccc(-c3c(-c4ncco4)nc4n3-c3cccnc3Nc3ccccc3-4)cc2)CCC1 [Example 151]
7.55 | NC1(c2ccc(-c3c(-c4ccoc4)nc4n3-c3cccnc3Nc3ccccc3-4)cc2)CCC1 [Example 9]
7.13 | NC1(c2ccc(-c3c(-c4cccc(F)c4)nc4n3-c3cccnc3Nc3ccccc3-4)cc2)CCC1 [Example 139]
7.74 | NCc1ccc(-c2nc3n(c2-c2ccc(C4(N)CCC4)cc2)-c2cccnc2Nc2ccccc2-3)cc1 [Example 149]
6.77 | NC1(c2ccc(-c3c(-c4ccccc4F)nc4n3-c3cccnc3Nc3ccccc3-4)cc2F)CCC1 [Example 137]
< 6.00 | Cc1cccc(NC(=O)Cc2nc3n(c2-c2ccc(C4(N)CCC4)cc2)-c2cccnc2Nc2ccccc2-3)n1 [Example 146]
8.52 | Nc1ncc(-c2nc3n(c2-c2ccc(C4(N)CCC4)cc2)-c2cccnc2Nc2ccccc2-3)cn1 [Example 31, trihydrochloride]
7.08 | COc1ccc(-c2nc3n(c2-c2ccc(C4(N)CCC4)c(F)c2)-c2cccnc2Nc2ccccc2-3)cc1 [Example 127]
8.52 | NC1(c2ccc(-c3c(-c4nccs4)nc4n3-c3cccnc3Nc3ccccc3-4)cc2)CCC1 [Example 150]
7.57 | COc1ncc(-c2nc3n(c2-c2ccc(C4(N)CCC4)cc2)-c2cccnc2Nc2ccccc2-3)s1 [Example 68]
7.14 | NC1(c2ccc(-c3c(-c4cccs4)nc4n3-c3cccnc3Nc3ccccc3-4)cc2)CCC1 [Example 83]
6.31 | Cc1ccccc1-c1nc2n(c1-c1ccc(C3(N)CCC3)c(F)c1)-c1cccnc1Nc1ccccc1-2 [Example 142]
6.35 | Cc1ccccc1-c1nc2n(c1-c1ccc(C3(N)CCC3)cc1)-c1cccnc1Nc1ccccc1-2 [Example 141]
6.46 | Cn1nccc1-c1nc2n(c1-c1ccc(C3(N)CCC3)cc1)-c1cccnc1Nc1ccccc1-2 [Example 70]
7.34 | C[C@H](N)c1ccc(-c2c(-c3ccccc3)nc3n2-c2cccnc2Nc2ccccc2-3)cc1 [Example 147]
6.92 | NC1(c2ccc(-c3c(-c4ccc(F)cc4)nc4n3-c3cccnc3Nc3ccccc3-4)cc2F)CCC1 [Example 135]
6.74 | NC1(c2ccc(-c3nc4n(c3-c3ccccc3)-c3cccnc3Nc3ccccc3-4)cc2)CCC1 [Example 144]
7.18 | C[C@@H](N)c1ccc(-c2c(-c3ccccc3)nc3n2-c2cccnc2Nc2ccccc2-3)cc1 [Example 148]
